# Results published in the supplement of paper PMC10307832.
# Compound: CN(C)CC1=CC(=CC=C1)N=C(C2=CC=CC=C2)C3=C(NC4=C3C=CC(=C4)C(=O)N(C)C)O
# Experiment: relative viability (nuclei count vs DMSO), 5 days (fraction); higher = more cells survive
# Method in brief: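 Viability was defined as treated-well nuclei divided by vehicle-well nuclei, with the median taken over replicate plates. Cells from lung cancer lines sat overnight at 37 °C in 1536-well plates, received five √10-spaced library-drug doses by pinning on vehicle-anchored plates, and grew 5 days without medium change before one-step fixation, permeabilisation and Hoechst staining, 4× imaging and MetaXpress nuclear counts. Only plates with control CV under 25% and at least one doubling were kept.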
Cell Line,relative viability (0.08 µM),relative viability (0.253 µM),relative viability (0.8 µM),relative viability (2.53 µM),relative viability (8 µM)
COR-L23,1.04,1.02,1.09,0.95,0.967
LK-2,1.13,1.04,0.909,0.991,0.853
PC-14,1.12,0.951,1.08,0.988,1.02
SW 1573,0.983,1.08,0.978,0.935,0.853
NCI-H2087,0.915,1.07,1.04,0.978,0.956
NCI-H460,0.981,1.04,1.04,0.933,1.01
NCI-H1734,1.1,1.05,1.04,0.962,0.824
NCI-H1648,0.851,0.657,0.749,0.884,0.915
NCI-H2228,1.04,1.06,0.874,0.879,0.789
HCC-44,1.08,0.987,1.03,0.949,1.05
EMC-BAC-2,1.02,1.06,1.03,0.939,1.08
NCI-H522,1.1,1.01,0.829,0.958,0.913
NCI-H1915,1.01,0.986,1.07,1.01,0.992
NCI-H661,0.975,1.05,1.01,0.958,0.941
LCLC-97TM1,0.907,1.04,1.02,1.13,1.13
NCI-H1793,1.01,1.07,0.773,1.05,0.839
HOP-62,1.05,0.965,1.04,0.981,0.97
HCC-827,0.999,1.03,1.06,0.953,0.916
NCI-H2126,1.01,0.988,0.941,1.03,0.903
RERF-LC-KJ,1.08,0.992,0.907,0.982,0.996
NCI-H2342,1.02,1.04,0.904,1.15,1.02
A-427,1.02,1.07,0.974,0.963,0.98
HARA,0.953,0.946,0.742,0.986,1.08
HCC-78,0.993,0.95,0.967,1.02,0.958
NCI-H1792,0.997,1.05,0.881,0.949,0.8
NCI-H2347,0.996,1.08,0.971,1,1.09

Cell Line,relative viability (0.08 µM),relative viability (0.253 µM),relative viability (0.8 µM),relative viability (2.53 µM),relative viability (8 µM)
ABC-1,1.1,1.05,0.971,0.891,0.864
Calu-6,1.1,1.05,1.01,0.986,0.977
NCI-H838,1,0.976,0.977,0.902,0.785
NCI-H2023,0.966,0.905,1.01,0.789,0.79
NCI-H1650,0.967,0.961,0.982,1.04,0.909
IA-LM,0.961,0.871,1.03,1.07,1.13
201T,0.983,1.02,0.997,0.947,0.901
NCI-H358,0.94,0.789,0.705,0.879,0.784
EBC-1,1.02,0.958,1.08,0.985,1.1
NCI-H1666,1.07,0.994,0.959,1.11,1.12
LXF-289,1.01,0.955,0.993,0.971,0.955
LC-2-ad,1.01,1.04,1.08,0.925,0.84
LCLC-103H,0.951,1.07,0.931,0.986,0.915
NCI-H1993,0.979,0.98,0.717,0.944,1.07
NCI-H441,1.03,1.14,1.2,0.984,0.923
EKVX,0.981,0.919,0.819,1.05,0.996
NCI-H1437,1.05,0.977,1.04,1.02,1.05
PC-3 [JPC-3],1.04,1.05,0.866,1.06,1.09
NCI-H650,0.941,1.02,1.1,0.963,0.782
UMC-11,1.05,0.934,0.98,0.924,0.957
NCI-H520,0.879,0.958,1.01,0.932,0.881
NCI-H727,0.921,0.962,0.891,1.02,0.821
SK-MES-1,1,0.993,0.934,0.938,0.914
NCI-H1975,0.955,0.915,0.85,0.926,0.789
ChaGo-K-1,0.948,0.993,1.02,0.947,1.01
NCI-H1563,1.02,1,0.905,0.861,0.783

Cell Line,relative viability (0.08 µM),relative viability (0.253 µM),relative viability (0.8 µM),relative viability (2.53 µM),relative viability (8 µM)
CAL-12T,1.07,1.02,1.09,1.01,1.12
A549,1.01,0.991,1.01,0.929,0.901
NCI-H3122,0.948,0.94,1.08,1.01,1.02
LU99A,0.893,0.934,0.966,0.885,0.87
EPLC-272H,0.837,1,0.838,1.15,0.792
NCI-H2009,1.03,0.987,1.1,0.973,0.97
BEN,0.904,0.944,0.988,1,0.909
NCI-H1755,0.981,0.967,0.971,0.983,0.987
NCI-H2405,1.02,1.01,1.01,0.902,0.979
NCI-H647,0.997,0.864,0.888,0.909,0.78
COR-L 105,1.04,1.03,0.926,0.928,0.787
H3255,0.942,1.02,0.889,1.02,1.04
LOU-NH91,0.954,1.03,0.789,0.96,0.913
NCI-H322M,0.823,0.996,0.794,0.75,0.651
HCC-366,1,0.985,1.01,0.978,0.955
SK-LU-1,1.04,1.02,0.996,0.993,0.866
NCI-H1944,0.956,1.03,0.892,0.903,0.823
HCC-15,0.996,0.995,1.03,1.05,1.09
NCI-H1651,1.01,0.954,1.04,0.897,0.978
NCI-H23,1.09,1.03,1.06,1.02,0.815
NCI-H1355,1.03,0.992,0.836,0.993,0.979
NCI-H596,1.05,0.973,0.975,1.01,0.882
NCI-H1395,0.87,0.976,1.04,0.774,0.875
NCI-H2170,0.952,0.981,0.812,1.02,0.915
NCI-H2085,1.02,1.02,0.98,1.02,1.02
